Data taken from ChEMBL document CHEMBL2029272, “7-Azabicyclo[2.2.1]heptane as a scaffold for the development of selective sigma-2 (σ2) receptor ligands” (Bioorg Med Chem Lett, 2012).

How the values were obtained:
[1] = biological target: 5-hydroxytryptamine receptor 1E (Homo sapiens) (UniProt P28566); experiment: Inhibition of 5-HT1E receptor at 10 uM
[2] = biological target: 5-hydroxytryptamine receptor 6 (Homo sapiens) (UniProt P50406); experiment: Inhibition of 5-HT6 receptor at 10 uM
[3] = biological target: 5-hydroxytryptamine receptor 5A (Homo sapiens) (UniProt P47898); experiment: Inhibition of 5-HT5A receptor at 10 uM
[4] = Inhibition of GABA-A receptor at 10 uM
[5] = biological target: T1, 5-hydroxytryptamine receptor 1A (Homo sapiens) (UniProt P08908); experiment: Inhibition of 5-HT1A receptor at 10 uM
T1 sequence (whole entry): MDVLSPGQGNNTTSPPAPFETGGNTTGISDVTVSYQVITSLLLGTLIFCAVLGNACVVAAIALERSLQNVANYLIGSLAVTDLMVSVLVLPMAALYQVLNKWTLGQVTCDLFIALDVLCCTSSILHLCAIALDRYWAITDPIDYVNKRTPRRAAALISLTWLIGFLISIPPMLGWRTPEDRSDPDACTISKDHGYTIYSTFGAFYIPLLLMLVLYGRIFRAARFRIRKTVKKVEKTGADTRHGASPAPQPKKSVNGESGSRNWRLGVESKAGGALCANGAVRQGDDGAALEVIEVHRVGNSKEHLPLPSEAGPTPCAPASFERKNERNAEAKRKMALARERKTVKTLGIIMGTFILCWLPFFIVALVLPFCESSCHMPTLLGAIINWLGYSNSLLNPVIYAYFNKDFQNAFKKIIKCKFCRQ

[6] = biological target: 5-hydroxytryptamine receptor 2B (Homo sapiens) (UniProt P41595); experiment: Inhibition of 5-HT2B receptor at 10 uM
[7] = biological target: T2, Alpha-2A adrenergic receptor (Homo sapiens) (UniProt P08913); experiment: Inhibition of alpha2A adrenergic receptor at 10 uM
T2 sequence (whole entry): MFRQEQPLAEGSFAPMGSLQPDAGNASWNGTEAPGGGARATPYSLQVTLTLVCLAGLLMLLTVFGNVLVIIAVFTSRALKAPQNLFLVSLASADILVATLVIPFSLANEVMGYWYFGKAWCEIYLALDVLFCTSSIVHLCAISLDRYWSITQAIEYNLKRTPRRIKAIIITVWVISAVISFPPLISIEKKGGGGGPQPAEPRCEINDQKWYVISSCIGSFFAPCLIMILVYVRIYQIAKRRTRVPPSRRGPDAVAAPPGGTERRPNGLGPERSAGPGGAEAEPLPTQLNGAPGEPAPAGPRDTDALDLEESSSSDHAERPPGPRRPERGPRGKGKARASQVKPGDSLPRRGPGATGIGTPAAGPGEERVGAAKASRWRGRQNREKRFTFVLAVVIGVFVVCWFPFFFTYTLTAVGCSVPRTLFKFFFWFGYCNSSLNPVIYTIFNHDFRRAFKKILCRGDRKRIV

[8] = biological target: Histamine H2 receptor (Homo sapiens) (UniProt P25021); experiment: Inhibition of H2 receptor at 10 uM
[9] = biological target: 5-hydroxytryptamine receptor 1D (Homo sapiens) (UniProt P28221); experiment: Inhibition of 5-HT1D receptor at 10 uM
[10] = biological target: Mu-type opioid receptor (Homo sapiens) (UniProt P35372); experiment: Inhibition of mu opioid receptor at 10 uM
[11] = biological target: T3, Muscarinic acetylcholine receptor M5 (Homo sapiens, UniProt P08912); experiment: Inhibition of M5 muscarinic receptor
T3 sequence (P08912 whole entry): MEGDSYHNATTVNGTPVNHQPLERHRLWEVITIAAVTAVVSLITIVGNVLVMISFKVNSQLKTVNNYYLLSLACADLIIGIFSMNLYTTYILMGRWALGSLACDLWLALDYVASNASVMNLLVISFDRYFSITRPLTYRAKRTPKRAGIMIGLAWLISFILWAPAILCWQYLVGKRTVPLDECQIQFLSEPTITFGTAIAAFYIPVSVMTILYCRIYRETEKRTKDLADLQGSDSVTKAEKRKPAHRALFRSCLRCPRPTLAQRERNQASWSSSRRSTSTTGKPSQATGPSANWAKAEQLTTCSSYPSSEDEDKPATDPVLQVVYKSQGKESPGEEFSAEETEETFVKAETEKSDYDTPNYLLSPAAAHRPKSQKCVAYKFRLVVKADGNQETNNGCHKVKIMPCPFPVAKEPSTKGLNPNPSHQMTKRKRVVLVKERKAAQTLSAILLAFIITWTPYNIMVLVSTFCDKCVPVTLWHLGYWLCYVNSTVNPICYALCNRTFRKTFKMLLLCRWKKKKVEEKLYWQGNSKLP

[12] = biological target: T4, Alpha-1A adrenergic receptor (Homo sapiens) (UniProt P35348); experiment: Inhibition of alpha1A adrenergic receptor at 10 uM
T4 sequence (whole entry): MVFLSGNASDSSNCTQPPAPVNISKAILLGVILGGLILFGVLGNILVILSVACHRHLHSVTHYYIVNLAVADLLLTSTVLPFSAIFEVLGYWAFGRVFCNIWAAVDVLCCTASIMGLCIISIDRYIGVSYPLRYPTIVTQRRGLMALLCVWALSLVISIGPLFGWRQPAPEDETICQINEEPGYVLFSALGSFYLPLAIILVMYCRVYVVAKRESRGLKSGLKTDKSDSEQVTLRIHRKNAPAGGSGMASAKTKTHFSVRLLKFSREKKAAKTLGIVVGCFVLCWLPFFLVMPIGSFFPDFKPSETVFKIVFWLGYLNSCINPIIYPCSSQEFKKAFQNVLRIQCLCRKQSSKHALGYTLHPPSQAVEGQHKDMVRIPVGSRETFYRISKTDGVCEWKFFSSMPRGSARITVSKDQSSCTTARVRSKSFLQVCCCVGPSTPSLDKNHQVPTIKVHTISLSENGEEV

[13] = biological target: 5-hydroxytryptamine receptor 2A (Homo sapiens) (UniProt P28223); experiment: Inhibition of 5-HT2A receptor at 10 uM
[14] = biological target: D(1A) dopamine receptor (Homo sapiens) (UniProt P21728); experiment: Inhibition of D1 dopamine receptor at 10 uM
[15] = biological target: T5, D(4) dopamine receptor (Homo sapiens) (UniProt P21917); experiment: Inhibition of D4 dopamine receptor at 10 uM
T5 sequence (whole entry): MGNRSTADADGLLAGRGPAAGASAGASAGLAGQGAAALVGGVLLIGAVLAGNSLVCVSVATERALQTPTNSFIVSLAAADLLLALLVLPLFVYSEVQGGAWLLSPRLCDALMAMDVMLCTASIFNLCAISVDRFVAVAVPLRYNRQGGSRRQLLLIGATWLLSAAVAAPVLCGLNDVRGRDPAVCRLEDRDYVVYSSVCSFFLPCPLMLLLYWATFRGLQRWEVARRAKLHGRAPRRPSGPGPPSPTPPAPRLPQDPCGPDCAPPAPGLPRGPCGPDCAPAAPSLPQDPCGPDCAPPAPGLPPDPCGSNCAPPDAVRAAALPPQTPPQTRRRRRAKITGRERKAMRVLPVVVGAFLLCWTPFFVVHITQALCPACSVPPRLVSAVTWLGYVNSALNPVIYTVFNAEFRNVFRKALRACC

Rattus norvegicus = species: Rattus norvegicus; experiment: Inhibition of BZP receptor in rat brain at 10 uM; assay type: tissue-based

Sequence of 5-hydroxytryptamine receptor 2B (Homo sapiens) (P41595 whole entry): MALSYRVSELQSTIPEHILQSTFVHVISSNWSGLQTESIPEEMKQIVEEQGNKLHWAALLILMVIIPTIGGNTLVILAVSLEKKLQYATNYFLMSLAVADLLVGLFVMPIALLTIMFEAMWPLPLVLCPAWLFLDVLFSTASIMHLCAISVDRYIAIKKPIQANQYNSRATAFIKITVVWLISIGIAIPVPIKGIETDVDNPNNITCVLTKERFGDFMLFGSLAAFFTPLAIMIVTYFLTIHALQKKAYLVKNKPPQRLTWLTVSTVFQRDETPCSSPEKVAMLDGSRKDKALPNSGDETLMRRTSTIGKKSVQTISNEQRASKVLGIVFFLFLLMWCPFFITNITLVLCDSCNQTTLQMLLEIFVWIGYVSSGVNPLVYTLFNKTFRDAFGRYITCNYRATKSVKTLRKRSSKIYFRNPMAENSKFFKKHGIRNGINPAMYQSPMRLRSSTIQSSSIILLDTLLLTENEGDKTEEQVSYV
Sequence of 5-hydroxytryptamine receptor 2A (Homo sapiens) (P28223 whole entry): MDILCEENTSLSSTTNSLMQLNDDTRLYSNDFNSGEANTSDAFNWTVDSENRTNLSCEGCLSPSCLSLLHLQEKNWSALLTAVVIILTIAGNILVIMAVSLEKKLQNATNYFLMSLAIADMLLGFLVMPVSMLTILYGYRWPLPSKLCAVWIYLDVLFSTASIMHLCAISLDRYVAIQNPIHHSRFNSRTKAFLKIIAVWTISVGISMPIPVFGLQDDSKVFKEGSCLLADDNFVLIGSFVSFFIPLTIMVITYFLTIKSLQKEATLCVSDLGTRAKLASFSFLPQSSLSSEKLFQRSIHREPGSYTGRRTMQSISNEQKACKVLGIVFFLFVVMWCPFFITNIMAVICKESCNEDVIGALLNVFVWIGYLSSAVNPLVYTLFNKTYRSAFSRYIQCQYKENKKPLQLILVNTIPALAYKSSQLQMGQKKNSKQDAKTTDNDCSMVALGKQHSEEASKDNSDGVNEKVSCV
Sequence of Histamine H2 receptor (Homo sapiens) (P25021 whole entry): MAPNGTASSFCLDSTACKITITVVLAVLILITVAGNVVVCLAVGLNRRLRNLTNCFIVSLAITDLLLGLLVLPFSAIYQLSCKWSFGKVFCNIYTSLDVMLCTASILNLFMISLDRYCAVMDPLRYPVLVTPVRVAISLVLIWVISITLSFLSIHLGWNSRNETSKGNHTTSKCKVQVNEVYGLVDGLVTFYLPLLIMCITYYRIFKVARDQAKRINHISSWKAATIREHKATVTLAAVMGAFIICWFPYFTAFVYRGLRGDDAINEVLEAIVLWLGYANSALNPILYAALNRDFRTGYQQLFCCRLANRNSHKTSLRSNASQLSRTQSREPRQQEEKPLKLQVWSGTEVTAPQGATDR
Sequence of 5-hydroxytryptamine receptor 1D (Homo sapiens) (P28221 whole entry): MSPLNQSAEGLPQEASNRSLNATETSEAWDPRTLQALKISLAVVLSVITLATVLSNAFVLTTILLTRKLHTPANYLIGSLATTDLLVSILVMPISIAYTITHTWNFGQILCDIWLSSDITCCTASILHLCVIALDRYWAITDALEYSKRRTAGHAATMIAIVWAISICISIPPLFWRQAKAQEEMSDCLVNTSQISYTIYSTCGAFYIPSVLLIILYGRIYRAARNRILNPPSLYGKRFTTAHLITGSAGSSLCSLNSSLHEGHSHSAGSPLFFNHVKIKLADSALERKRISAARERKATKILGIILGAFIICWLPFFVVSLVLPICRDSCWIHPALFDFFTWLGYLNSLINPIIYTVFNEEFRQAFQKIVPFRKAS
Sequence of 5-hydroxytryptamine receptor 5A (Homo sapiens) (P47898 whole entry): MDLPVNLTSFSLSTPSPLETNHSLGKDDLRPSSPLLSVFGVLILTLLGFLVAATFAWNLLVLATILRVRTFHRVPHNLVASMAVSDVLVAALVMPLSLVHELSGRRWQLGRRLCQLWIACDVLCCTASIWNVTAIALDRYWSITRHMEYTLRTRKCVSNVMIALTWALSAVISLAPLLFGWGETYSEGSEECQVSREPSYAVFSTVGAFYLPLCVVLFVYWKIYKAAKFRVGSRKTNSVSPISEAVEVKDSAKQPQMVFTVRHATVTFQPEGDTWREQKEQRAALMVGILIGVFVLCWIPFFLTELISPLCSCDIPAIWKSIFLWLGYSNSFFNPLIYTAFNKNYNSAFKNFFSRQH
Sequence of D(1A) dopamine receptor (Homo sapiens) (P21728 whole entry): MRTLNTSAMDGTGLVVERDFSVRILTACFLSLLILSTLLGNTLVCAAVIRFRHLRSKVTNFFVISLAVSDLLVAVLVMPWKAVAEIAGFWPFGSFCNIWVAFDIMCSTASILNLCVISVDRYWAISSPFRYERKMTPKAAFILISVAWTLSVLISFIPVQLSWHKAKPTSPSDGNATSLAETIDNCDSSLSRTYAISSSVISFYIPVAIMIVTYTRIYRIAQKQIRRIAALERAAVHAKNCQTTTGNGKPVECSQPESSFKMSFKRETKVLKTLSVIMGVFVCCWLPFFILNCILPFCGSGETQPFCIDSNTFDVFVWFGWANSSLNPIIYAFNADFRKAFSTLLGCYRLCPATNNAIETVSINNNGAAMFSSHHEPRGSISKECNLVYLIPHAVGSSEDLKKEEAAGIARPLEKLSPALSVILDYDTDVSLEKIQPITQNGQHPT
Sequence of 5-hydroxytryptamine receptor 1E (Homo sapiens) (P28566 whole entry): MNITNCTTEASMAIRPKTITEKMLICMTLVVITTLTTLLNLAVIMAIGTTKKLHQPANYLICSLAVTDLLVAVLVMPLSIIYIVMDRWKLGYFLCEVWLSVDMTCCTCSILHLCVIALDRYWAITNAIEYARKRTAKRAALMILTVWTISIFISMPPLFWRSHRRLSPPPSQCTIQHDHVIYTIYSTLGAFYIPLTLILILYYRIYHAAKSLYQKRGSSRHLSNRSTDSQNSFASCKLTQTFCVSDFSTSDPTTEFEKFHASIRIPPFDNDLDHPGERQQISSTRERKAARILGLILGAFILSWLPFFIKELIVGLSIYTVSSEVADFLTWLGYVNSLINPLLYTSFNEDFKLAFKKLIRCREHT
Sequence of 5-hydroxytryptamine receptor 6 (Homo sapiens) (P50406 whole entry): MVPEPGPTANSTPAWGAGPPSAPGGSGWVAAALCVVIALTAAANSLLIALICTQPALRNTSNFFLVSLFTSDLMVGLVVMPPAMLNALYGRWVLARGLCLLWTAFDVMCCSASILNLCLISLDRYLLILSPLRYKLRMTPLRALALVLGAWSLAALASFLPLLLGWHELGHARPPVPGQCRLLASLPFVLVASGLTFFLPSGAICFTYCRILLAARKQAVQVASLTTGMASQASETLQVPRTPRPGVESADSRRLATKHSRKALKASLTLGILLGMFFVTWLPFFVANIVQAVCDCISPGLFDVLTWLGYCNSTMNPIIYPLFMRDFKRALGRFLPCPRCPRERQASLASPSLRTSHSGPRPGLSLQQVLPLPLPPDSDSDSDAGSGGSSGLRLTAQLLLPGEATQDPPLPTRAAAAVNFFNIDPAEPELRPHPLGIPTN
Sequence of Mu-type opioid receptor (Homo sapiens) (P35372 whole entry): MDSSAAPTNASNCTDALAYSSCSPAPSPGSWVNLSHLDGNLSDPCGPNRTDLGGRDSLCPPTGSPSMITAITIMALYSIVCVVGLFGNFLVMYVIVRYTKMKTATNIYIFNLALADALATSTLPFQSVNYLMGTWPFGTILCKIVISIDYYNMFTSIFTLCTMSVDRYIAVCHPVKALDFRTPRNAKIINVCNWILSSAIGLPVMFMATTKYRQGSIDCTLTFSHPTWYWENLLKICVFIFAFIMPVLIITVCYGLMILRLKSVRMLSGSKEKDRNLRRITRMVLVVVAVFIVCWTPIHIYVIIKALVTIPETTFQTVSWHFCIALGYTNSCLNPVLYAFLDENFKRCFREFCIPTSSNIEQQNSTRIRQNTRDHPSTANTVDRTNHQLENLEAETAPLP

Row | SMILES | inhibition [1] | inhibition [2] | inhibition [3] | inhibition [4] | inhibition [5] | inhibition [6] | inhibition [7] | inhibition [8] | inhibition [9] | inhibition [10] | Ki [11] | inhibition [12] | inhibition [13] | inhibition [14] | inhibition [15] | inhibition (Rattus norvegicus)
1 | C1CCC(CN2C3CCC2CC3)CC1 | < 50% | < 50% | < 50% | < 50% | < 50% | < 50% | < 50% | < 50% | < 50% | < 50% | 2.67 µM | < 50% | < 50% | < 50% | < 50% | < 50%
2 | C1CC2CCC1N2CC12C3C4C5C3C1C5C42 (stereo not drawn) | < 50% | < 50% | < 50% | < 50% | < 50% | < 50% | < 50% | < 50% | < 50% | < 50% | 0.802 µM | < 50% | < 50% | < 50% | < 50% | < 50%
3 | C1CCC(CN2CCCC2)CC1 | < 50% | < 50% | < 50% | < 50% | < 50% | < 50% | < 50% | < 50% | < 50% | < 50% | 2.69 µM | < 50% | < 50% | < 50% | < 50% | < 50%
